Reference: ChEMBL document CHEMBL5233246, “CT1-3, a novel magnolol-sulforaphane hybrid suppresses tumorigenesis through inducing mitochondria-mediated apoptosis and inhibiting epithelial mesenchymal transition” (Eur J Med Chem, 2020)
The source made the active and inactive calls. The calls are words filed in the database; no cut-off is given here.

Experiments:
U-251 = assay: Antiproliferative activity against human U-251 cells assessed as reduction in cell viability incubated for 24 hrs by CCK-8 assay; assay type: functional, cell-based; details: U-251, 24 h
HONE1 cell line = assay: Antiproliferative activity against human HONE1 cell line assessed as reduction in cell viability incubated for 24 hrs by CCK-8 assay; assay type: functional, cell-based; details: HONE1, 24 h
A549 [1] = assay: Antiproliferative activity against human A549 cells assessed as reduction in cell viability incubated for 24 hrs by CCK-8 assay; assay type: functional, cell-based; details: A549, 24 h
[2] = Antiproliferative activity against human NCI-H1688 cells assessed as reduction in cell viability incubated for 24 hrs by CCK-8 assay; assay type: functional, cell-based; details: NCI-H1688, 24 h
NCI-H460 [3] = assay: Antiproliferative activity against human NCI-H460 cells assessed as reduction in cell viability incubated for 24 hrs by CCK-8 assay; assay type: functional, cell-based; details: NCI-H460, 24 h
SGC-7901 = assay: Antiproliferative activity against human SGC-7901 cells assessed as reduction in cell viability incubated for 24 hrs by CCK-8 assay; assay type: functional, cell-based; details: SGC-7901, 24 h
OVCAR-3 [4] = assay: Antiproliferative activity against human OVCAR-3 cells assessed as reduction in cell viability incubated for 24 hrs by CCK-8 assay; assay type: functional, cell-based; details: OVCAR-3, 24 h
L02 = assay: Cytotoxicity against human L02 cells assessed as reduction in cell viability incubated for 8 hrs by CCK-8 assay; assay type: toxicity, cell-based; details: l02, 8 h
A549 [5] = assay: Inhibition of colony formation in human A549 cells incubated for 48 hrs by Giemsa staining based microscopy; assay type: functional, cell-based
NCI-H1650 = assay: Inhibition of colony formation in human NCI-H1650 cells incubated for 48 hrs by Giemsa staining based microscopy; assay type: functional, cell-based
LoVo [6] = assay: Inhibition of colony formation in human LoVo cells incubated for 48 hrs by Giemsa staining based microscopy; assay type: functional, cell-based
SW480 = assay: Inhibition of colony formation in human SW480 cells incubated for 48 hrs by Giemsa staining based microscopy; assay type: functional, cell-based
OVCAR-3 [7] = assay: Antitumor activity against human OVCAR-3 cells xenografted in BALB/c mouse assessed as reduction in tumor growth at 20 mg/kg,ip measured after 28 days; assay type: functional, organism-based; details: time 28.0 day
[8] = Toxicity in BALB/c mouse xenografted with human MDA-MB-231 cells assessed as kidney pathological change at 20 mg/kg,ip measured after 28 days; assay type: organism-based; details: in vivo, 672 h, time 28 day
A549 [9] = assay: Induction of apoptosis in human A549 cells assessed as viable cells at 10 uM incubated for 24 hrs by annexin V-FITC/propidium iodide staining based flow cytometry analysis (reference value: 95.2%); assay type: functional; details: read-out: Activity
A549 [10] = assay: Induction of apoptosis in human A549 cells assessed as early apoptotic cells at 10 uM incubated for 24 hrs by annexin V-FITC/propidium iodide staining based flow cytometry analysis (reference value: 3.6%); assay type: functional
NCI-H460 [11] = assay: Induction of apoptosis in human NCI-H460 cells assessed as early apoptotic cells at 10 uM incubated for 24 hrs by annexin V-FITC/propidium iodide staining based flow cytometry analysis (reference value: 0.8%); assay type: functional
NCI-H460 [12] = assay: Induction of apoptosis in human NCI-H460 cells assessed as necrotic cells at 10 uM incubated for 24 hrs by annexin V-FITC/propidium iodide staining based flow cytometry analysis (reference value: 0.9%); assay type: functional
LoVo [13] = assay: Induction of apoptosis in human LoVo cells assessed as viable cells at 10 uM incubated for 24 hrs by annexin V-FITC/propidium iodide staining based flow cytometry analysis (reference value: 98%); assay type: functional; details: read-out: Activity
A549 [14] = assay: Induction of apoptosis in human A549 cells assessed as increase in ROS level at 10 uM incubated for 8 hrs by H2DCFDA staining based fluorescence microscopic assay; assay type: functional, cell-based
NCI-H460 [15] = assay: Induction of apoptosis in human NCI-H460 cells assessed as decrease in Bcl-2 protein expression level at 7.5 uM incubated for 24 hrs by western blot assay; assay type: functional, cell-based
NCI-H460 [16] = assay: Induction of apoptosis in human NCI-H460 cells assessed as decrease in XIAP protein expression level at 7.5 uM incubated for 24 hrs by western blot assay; assay type: functional, cell-based
NCI-H460 [17] = assay: Induction of apoptosis in human NCI-H460 cells assessed as increase in Bax protein expression level at 7.5 uM incubated for 24 hrs by western blot assay; assay type: functional, cell-based
LoVo [18] = assay: Induction of apoptosis in human LoVo cells assessed as increase in Bax protein expression level at 7.5 uM incubated for 24 hrs by western blot assay; assay type: functional, cell-based
NCI-H460 [19] = assay: Induction of apoptosis in human NCI-H460 cells assessed as increase in JNK phosphorylation level at 7.5 uM incubated for 24 hrs by western blot assay; assay type: functional, cell-based
LoVo [20] = assay: Induction of apoptosis in human LoVo cells assessed as increase in JNK phosphorylation at 7.5 uM incubated for 24 hrs by western blot assay; assay type: functional, cell-based
A549 [21] = assay: Inhibition of cell invasion in human A549 cells at 7.5 uM incubated for 24 hrs by matrigel based transwell assay; assay type: functional
NCI-H460 [22] = assay: Inhibition of cell migration in human NCI-H460 cells assessed as upregulation of E-cadherin protein expression at 7.5 uM incubated for 24 hrs by western blot analysis; assay type: functional, cell-based

Work on `C=CCc1ccc(O)c(-c2cc(CC=C)ccc2OCC[S+]([O-])CCCCN=C=S)c1` (stereo not drawn) yielded an IC50 (U-251) of 7.75 µM, an IC50 (HONE1 cell line) of 14.1 µM and an IC50 (A549 [1]) of 9.07 µM. It also gave an IC50 [2] of 12.8 µM, an IC50 (NCI-H460 [3]) of 6.15 µM and an IC50 (SGC-7901) of 11.5 µM. For the same compound, the IC50 (OVCAR-3 [4]) was 5.34 µM, the Activity (L02) was “Non-Toxic” and the inhibition (A549 [5]) was “Active”. The inhibition (NCI-H1650) was “Active”, the inhibition (LoVo [6]) was “Active” and the inhibition (SW480) was “Active”. For the same compound, the Activity (OVCAR-3 [7]) was “Active”, the Activity [8] was “Non-Toxic” and the viability at 10 µM (A549 [9]) was 50.1%. For the same compound, the Activity (A549 [10]) was 13.9%, the Activity (NCI-H460 [11]) was 8.2% and the Activity (NCI-H460 [12]) was 3.6%. For the same compound, the viability at 10 µM (LoVo [13]) was 22%, the Activity (A549 [14]) was “Active” and the Activity (NCI-H460 [15]) was “Active”. The Activity (NCI-H460 [16]) was “Active”, the Activity (NCI-H460 [17]) was “Active” and the Activity (LoVo [18]) was “Active”. The Activity (NCI-H460 [19]) was “Active”, the Activity (LoVo [20]) was “Active” and the inhibition (A549 [21]) was “Active”. The inhibition (NCI-H460 [22]) was “Active”.
